The test deals with T1, Human pol ι (Homo sapiens, UniProt Q9UNA4).
T1 construct: purchased Enzymax Inc. (Lexington, KY)
T1 sequence (Q9UNA4 1-740): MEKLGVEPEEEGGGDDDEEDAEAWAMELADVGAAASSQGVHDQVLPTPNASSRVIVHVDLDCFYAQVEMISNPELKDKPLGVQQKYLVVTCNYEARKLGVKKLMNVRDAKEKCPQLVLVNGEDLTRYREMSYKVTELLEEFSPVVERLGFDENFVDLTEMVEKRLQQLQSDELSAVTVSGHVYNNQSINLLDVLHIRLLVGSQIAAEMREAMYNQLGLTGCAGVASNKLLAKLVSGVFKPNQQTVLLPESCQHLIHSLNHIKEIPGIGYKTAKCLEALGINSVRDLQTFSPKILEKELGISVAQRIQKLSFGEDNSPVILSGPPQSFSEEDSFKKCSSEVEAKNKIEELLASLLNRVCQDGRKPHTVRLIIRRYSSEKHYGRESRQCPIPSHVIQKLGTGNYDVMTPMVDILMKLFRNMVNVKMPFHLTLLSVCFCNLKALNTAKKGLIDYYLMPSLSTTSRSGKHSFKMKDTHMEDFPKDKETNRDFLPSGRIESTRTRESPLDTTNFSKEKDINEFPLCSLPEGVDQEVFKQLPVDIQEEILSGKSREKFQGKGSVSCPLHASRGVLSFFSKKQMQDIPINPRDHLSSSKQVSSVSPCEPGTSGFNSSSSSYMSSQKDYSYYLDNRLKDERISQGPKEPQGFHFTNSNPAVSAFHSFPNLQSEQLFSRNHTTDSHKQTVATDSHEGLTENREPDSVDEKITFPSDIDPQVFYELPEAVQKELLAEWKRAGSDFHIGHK
Kind of test: Radioactive gel-based primer extension assay on non-damaged DNA, pol ι. The format is biochemical. As to conditions: average ± standard error, three experiments. How it is done:
The reactions with pol κ, pol η, and pol ι were carried out in the buffers containing 25 mM Tris-HCl, pH 7.5, 8 mM MgCl2, 10% glycerol, 100 µg/mL bovine serum albumin, and 5 mM DTT. Buffers for pol δ reactions contained 40 mM Hepes-KOH, pH 6.8, 10% glycerol, 200 µg/mL bovine serum albumin, 1 mM DTT, and 8 mM MgCl2. Final concentration of pol κ, pol η, pol ι, or pol δ in the reaction was 0.25 nM, 1 nM, 2.5 nM, or 4 nM, respectively. In this assay, a polymerase was preincubated with the compound for 15 min at room temperature. Primer extensions were then initiated by the addition of DNA substrate at final concentration of 5 nM and carried out for 30 min at room temperature in the presence of 100 µM dCTP and dGTP. The reactions were terminated by the addition of an equal volume of a dye solution containing 95% (v/v) formamide, 10 mM EDTA, 0.03% (w/v) xylene cyanol, and 0.03% (w/v) bromphenol blue. Reaction products were separated through a 15% acrylamide gel containing 8 M urea and visualized with a PhosphorImager screen. The ratio of extended primer to the total amount of primer was measured using ImageQuant 5.2 software to calculate the percentage of primer extended. IC50 values were determined by fitting the data to variable slope four-parameter equations using GraphPad Prism 5.

We go through 1 compound from article PMC3466269, “A Comprehensive Strategy to Discover Inhibitors of the Translesion Synthesis DNA Polymerase κ” (PLoS ONE, 2012).

`CCOc1nc2cccc(C(=O)OC(C)OC(=O)OC3CCCCC3)c2n1Cc1ccc(-c2ccccc2-c2nnn[nH]2)cc1` (stereo not shown) [candesartan cilexetil, Candesartan cilexetil]: the IC50 came to 6.2 ± 0.6 µM.

One may read the IC50 as the concentration that gives 50% inhibition.
